# Source: US20120283293A1, “Methods of neuroprotection involving Prostaglandin E2 EP4 (PGE2 EP4) receptor activation” (The Board of Trustees of the Leland Stanford Junior …, priority 2011, published 2012)
# System: BV-2 cells
# Test: qPCR of pro-inflammatory gene expression in LPS-stimulated BV-2 cells
# Format: cell-based, murine
# Conditions: LPS 10 ng/ml, 6 h
# Experimental: Murine microglial-like BV-2 cells were grown in DMEM medium supplemented with 10% heat-inactivated fetal bovine serum (HyClone, Logan, Utah) and 100 units/ml each of penicillin and streptomycin and were maintained at 37° C. in a humidified atmosphere containing 5% CO2. For primary microglial cultures, cerebral cortices were isolated from postnatal day 2 Sprague-Dawley rat pups obtained from Charles River Laboratories International, Inc. (Davis, Calif.). Tissues were minced and incubated in 0.25% trypsin-EDTA, mechanically triturated in DMEM/F-12 with 10% FBS, and plated on poly-L-lysine-coated […]. Cultures were maintained for 14 days with media changes every 4 days. […]
# qPCR was carried out as previously described (Liang et al., 2008). […] The mRNA level for each target gene was quantified by SYBR Green-based qPCR using the QuantiTect SYBR Green PCR kit (Qiagen). […] Quantification was performed using the standard curve method. […]
# Inflammatory stimuli such as LPS can activate microglia through the CD14/TLR4 receptor complex and induce the expression of pro-inflammatory enzymes and cytokines (Fassbender et al., 2004; Walter et al., 2007). […] BV-2 cells were treated with LPS (10 ng/ml) in the presence or absence of the selective EP4 agonist AE1-329 (1 μM) for 6 h, and pro-inflammatory gene expression was measured using qPCR (see FIG. 2). […]
smiles,measurement,setting,value
COCc1ccccc1CC[C@H](O)/C=C/[C@H]1[C@H](O)CC(=O)[C@@H]1SCCCSCC(=O)O [AE1-329],"LPS-induced mRNA of COX-2, iNOS, gp91phox, TNF-α, IL-1β and IL-6","AE1-329 1 μM, qPCR",significantly blunted the induction of these genes
same,IL-10 mRNA expression,co-stimulation with AE1-329 1 μM,significantly induced expression
